These results are taken from patent US20090118361A1, “SUPPRESSOR OF EXPRESSION OF MCP-1, AND AMELIORATING AGENT FOR INFLAMMATORY DISEASE, PHARMACEUTICAL, SUPPLEMENT, FOOD, BEVERAGE OR FOOD ADDITIVE USING THE SUPPRESSOR” (ARKRAY, INC., priority 2006, published 2009).

For test [1], the system named is MCP-1. Briefly: Suppression of MCP-1 mRNA expression in differentiated 3T3-L1 adipocytes (Light Cycler quantitative determination, ratio to 36B4). As to conditions: 3T3-L1, eight days after start of differentiation induction, MCP-1/36B4 ratio relative to non-treated control = 100%, mean ± standard error. In kind it is cell-based, mouse. The method, then: (§1) First, two types of culture media indicated below, i.e. a differentiation induction culture medium and a differentiation enhancing culture medium, were prepared.
(§2) (Composition: 0.25 μM DEX, 0.5 mM MIX, 10 μg/mL insulin/10% FBS-containing DMEM)
(§3) First, 55 mL of FBS (fetal bovine serum (manufactured by GIBCO)) was added to 500 mL of DMEM (manufactured by SIGMA), and thereby 10% FBS-containing DMEM was prepared. Thereafter, 138.75 μL of 1 mM DEX (dexamethasone)-containing DMSO (manufactured by Nacalai Tesque, Inc.) and 555 μL of 10 mg/mL insulin-containing PBS (manufactured by SIGMA) were added thereto. The insulin-containing PBS was prepared as follows. That is, 1N HCl was added to PBS beforehand, so that PBS acidified to a degree that allowed insulin to dissolve therein, and thereafter insulin was dissolved therein. MIX (3-Isobutyl-1-methylxanthine) (manufactured by Nacalai Tesque, Inc.) was added to a required amount of the culture medium immediately before use so as to be 0.5 mM. Thus a differentiation induction culture medium was prepared. Since MIX was very difficult to dissolve, it first was dissolved in a small amount of 99.5% ethanol. which was then added to 10% FBS-containing DMEM. In this case, the final concentration of 99.5% ethanol in the differentiation induction culture medium was adjusted so as not to exceed 1%.
(§4) (Composition: 5 ug/mL insulin/10% FBS-containing DMEM/auraptene)
First, 277.5 μL of the aforementioned 10 mg/mL insulin-containing PBS was added to 555 ml, of 10% FBS-containing DMEM. Furthermore, auraptene (AUR) with various concentrations was added to this mixture and thereby differentiation enhancing culture media were prepared. […]
Subsequently, frozen cultured preadipocyte 3T3-L1 was thawed and was plated on the culture medium placed in a 100-mm dish. […] Subsequently, using a Light/Cycler®, the levels of mRNA expression of MCP-1 and 36B4, […], were measured. […]

Test [2] has as its system MCP-1. Briefly: MCP-1 protein secretion into conditioned medium of differentiated 3T3-L1 adipocytes (ELISA). The conditions noted are these: 3T3-L1 conditioned medium, eight days after start of differentiation induction, relative to non-treated control = 100, mean ± standard error. It counts as cell-based, mouse. The method, then:
as §1, §2, §3, §4
First, 277.5 μL of the aforementioned 10 mg/mL insulin-containing PBS was added to 555 ml, of 10% FBS-containing DMEM. Furthermore, auraptene (AUR) with various concentrations was added to this mixture and thereby differentiation enhancing culture media were prepared. In this case, a cultured cell obtained by using auraptene-free differentiation enhancing culture medium containing DMSO added instead of auraptene was employed as a non-treated control (control).
Subsequently, frozen cultured preadipocyte 3T3-L1 was thawed and was plated on the culture medium placed in a 100-mm dish. This was cultured until 3T3-L1 reached about 80% confluent. One dish of 3T3-L1 that had reached about 80% confluent was subcultured on a 6-well plate. Subsequently, after 3T3-L1 subcultured on the 6-well plate further was cultured until it reached 100% confluent, the culture medium was replaced by a differentiation induction culture medium and thereby differentiation was induced. Subsequently, 48 hours after replacement by a differentiation induction culture medium, the culture medium was replaced by a differentiation enhancing culture medium. Thereafter, replacement of the differentiation enhancing culture medium was carried out every three days. Using Sepasol RNA I Super (trade name, manufactured by Nacalai Tesque, Inc.), mRNA was extracted from the cultured cells eight days after the start of differentiation induction. Subsequently, using a Light/Cycler®, the levels of mRNA expression of MCP-1 and 36B4, […], were measured. The measurement of the levels of mRNA expression is described below in detail.
Furthermore, the culture medium obtained eight days after the start of differentiation induction was collected in an amount of 1 mL from each well. Using an ELISA kit (manufactured by BD Bioscience, trade name: BD OptEIA Set Mouse MCP-1), the amount of MCP-1 (protein abundance) in the conditioned medium was measured according to the manual of the kit.
The relative ratios calculated, with the measured value of the non-treated control (control) with respect to the measured value of the secretion amount of MCP-1 by ELISA being taken as 100, are indicated in Table 2 below and in the graph shown in FIG. 2. The auraptene concentrations indicated in Table 2 below and FIG. 2 are final concentrations in the differentiation enhancing culture media. In FIG. 2, AUR denotes auraptene, and Ctrl indicates the non-treated control (control). […]
In general terms: ELISA stands for enzyme-linked immunosorbent assay.

With `CC(C)=CCC/C(C)=C/COc1ccc2ccc(=O)oc2c1` [Example 1, auraptene], the “mRNA concentration of MCP-1” value was 99.8 ± 8.0% in test [1] (auraptene 5 μM in differentiation enhancing medium), 62.3 ± 5.8% in test [1] (auraptene 20 μM in differentiation enhancing medium) and 28.3 ± 2.9% in test [1] (auraptene 50 μM in differentiation enhancing medium). Besides, the “Protein secretion amount of MCP-1” value was found to be 94.6 ± 4.9% in test [2] (auraptene 1 μM); 98.6 ± 2.5% in test [2] (auraptene 5 μM); 92.1 ± 4.6% in test [2] (auraptene 10 μM); 72.3 ± 2.2% in test [2] (auraptene 20 μM); 63.9 ± 2.5% in test [2] (auraptene 30 μM); 48.5 ± 2.1% in test [2] (auraptene 50 μM).
